From patent US12274775B2, “Fatty acid esters as anti-Malassezia agents” (SYMRISE AG, priority 2019, dated 2025)
Converted amounts (≈) assume the structure as drawn. Where two headings read alike, the source gives them in different places.

Legend:
M. furfur = experiment: Agar dilution test on mDixon agar, minimal inhibitory concentration (MIC); type: cell-based; details: for MIC: Malassezia furfur
Method: (§1) The fatty acid esters and their mixtures were tested for growth inhibition against Malassezia. The following reference strains were included:
(§2) Tests were performed on solid media using agar dilution tests. Stock solutions of test substances were prepared in mDixon-Agar (cf. Table 2). Lower test concentrations were obtained by diluting stock solutions with fresh agar.
(§3) Preparation of liquid agar was carried out in temperated water bath. Required amounts of test substances were weighed in 130 ml of Dixon Agar and mixed with fresh Dixon-Agar to reach desired concentrations of test substances. Agar solutions with test substances were then poured into 24 well-plates. The pH value in all assays was maintained at 5.5. Preparation of test substances was done on weight per volume base. All results are expressed in parts per million (1 ppm=0.0001%).
(§4) Briefly, Malassezia strains were cultivated on selective agar for pathogenic fungi (Merck) and overlaid with a thin layer of cold-sterilized olive oil. […] Incubation was carried out at 32° C. over a maximal duration of 14 days with regular inspection and documentation of growth status. Minimal inhibitory concentrations (MICs) were determined as the lowest concentrations of test compound without visible growth. Each experiment was repeated to confirm results.

M. globosa = experiment: as above; type: cell-based; details: for MIC: Malassezia globosa
Method: as §1, §2, §3, §4

M. pachydermatis = experiment: as above; type: cell-based; details: for MIC: Malassezia pachydermatis
Method: as §1, §2, §3, §4

M. restricta = experiment: as above; type: cell-based; details: for MIC: 336 h
Method: as §1, §2, §3, §4

M. sympodialis = experiment: as above; type: cell-based; details: for MIC: 336 h
Method: as §1, §2, §3, §4

M. globosa CBS 7705 = experiment: Ester cleavage by Malassezia cells, GC quantification; type: cell-based; details: 32° C.
Method: (§5) These two species are the most frequently detected ones on human scalp and skin and their hydrolytic/lipolytic activities on fatty acid esters has not yet been investigated before.
(§6) Malassezia strains were cultivated on selective agar for pathogenic fungi (Merck) and overlaid with a thin layer of cold-sterilized olive oil. After 3 to 5 days, fungal cells were harvested and resuspended in the respective test substance. Cell numbers were determined using a Neubauer counting chamber (cf. Table 12). Sterile Petri dishes (diameter: 3 cm) were prepared containing selective agar for pathogenic fungi, overlaid with 100 μl of the test suspensions and incubated at 32° C.
(§7) After defined incubation times (0, 3, 6, 12, 24, 48, and 72 h), test suspensions were removed from the agar surface by rinsing with 1 ml chloroform and stored under cool conditions in gastight tubes until analysis. Chloroform was removed by evaporation at 30° C. in the fume hood and the remaining liquid mixed with 1 ml isopropanol, transferred in Eppendorf tubes and centrifuged. The supernatant was transferred to new Eppendorf tubes.
(§8) In order to analytically quantify esters and free fatty acid resulting from cleavage by Malassezia enzymes, gas chromatography was used.
(§9) For quantification (range 0.1-10 wt %) a multilevel calibration method with internal standard (ISTD, docosane [C22]; 500 mg in MtBE) was used. An equal amount of corresponding acid, ester and possible side products [0.2-50 mg/10 mL] were mixed with ISTD, diluted to an appropriate concentration and 1 μL [split1:50] was directly used for GC-analysis with the following conditions: GC Agilent 6890 with a 20 m ZB-Wax column [0.20 mm×0.20 μm], injector temperature of 250° C., detector temperature of 275° C., flow gas of 1.3 mL/min hydrogen [constant]. For temperature profile 60° C. to 240° C. with a heating rate of 9° C./min was used.

M. restricta CBS 7877 = experiment: as above; type: cell-based; details: 32° C.
Method: as §5, §6, §7, §8, §9

[1] = Ester cleavage assays without Malassezia cells; type: physicochemical; details: until the end of the experiment after 72 hours
Method: as §6, §7, §8
For quantification (range 0.1-10 wt %) a multilevel calibration method with internal standard (ISTD, docosane [C22]; 500 mg in MtBE) was used. […]

[2] = CBS1878, 336 h, M. furfur CBS 1878, agar dilution, pH 5.5, 32° C., up to 14 days, read-out: Minimal inhibitory concentration (MIC)
[3] = CBS7019, 336 h, M. furfur CBS 7019, agar dilution, pH 5.5, 32° C., up to 14 days, read-out: Minimal inhibitory concentration (MIC)
[4] = 336 h, M. globosa PM1, agar dilution, pH 5.5, 32° C., up to 14 days, read-out: Minimal inhibitory concentration (MIC)
[5] = CBS7705, 336 h, M. globosa CBS 7705, agar dilution, pH 5.5, 32° C., up to 14 days, read-out: Minimal inhibitory concentration (MIC)
[6] = CBS7966, 336 h, M. globosa CBS 7966, agar dilution, pH 5.5, 32° C., up to 14 days, read-out: Minimal inhibitory concentration (MIC)
[7] = 336 h, M. pachydermatis 1892, agar dilution, pH 5.5, 32° C., up to 14 days, read-out: Minimal inhibitory concentration (MIC)
[8] = CBS1879, 336 h, M. pachydermatis CBS 1879, agar dilution, pH 5.5, 32° C., up to 14 days, read-out: Minimal inhibitory concentration (MIC)
[9] = M. restricta CBS 7877, agar dilution, pH 5.5, 32° C., up to 14 days, read-out: Minimal inhibitory concentration (MIC)
[10] = pH 5.5, M. sympodialis ATCC 42132, pH 5.5, 32° C., up to 14 days, read-out: Minimal inhibitory concentration (MIC)
[11] = pH 5.5, M. sympodialis CBS 7222, pH 5.5, 32° C., up to 14 days, read-out: Minimal inhibitory concentration (MIC)
[12] = pH 5.5, M. sympodialis CBS 7979, pH 5.5, 32° C., up to 14 days, read-out: Minimal inhibitory concentration (MIC)
[13] = pH 5.5, M. sympodialis DSM 6171, pH 5.5, 32° C., up to 14 days, read-out: Minimal inhibitory concentration (MIC)
[14] = M. globosa CBS 7705, after 6 hours
[15] = M. globosa CBS 7705, after 12 hours
[16] = M. restricta CBS 7877, after 6 hours
[17] = M. restricta CBS 7877, after 12 hours
[18] = 336 h, pH 5.5, read-out: Minimal inhibitory concentration (MIC)

| Compound | MIC (M. furfur; [2]) [µg/mL] | MIC (M. furfur; [3]) [µg/mL] | MIC (M. globosa; [4]) [µg/mL] | MIC (M. globosa; [5]) [µg/mL] | MIC (M. globosa; [6]) [µg/mL] | MIC (M. pachydermatis; [7]) [µg/mL] | MIC (M. pachydermatis; [8]) [µg/mL] | MIC (M. restricta; [9]) [µg/mL] | MIC (M. sympodialis; [10]) [µg/mL] | MIC (M. sympodialis; [11]) [µg/mL] | MIC (M. sympodialis; [12]) [µg/mL] | MIC (M. sympodialis; [13]) [µg/mL] | ester cleaved (M. globosa CBS 7705; [14]) [%] | ester cleaved (M. globosa CBS 7705; [15]) [%] | ester cleaved (M. restricta CBS 7877; [16]) [%] | ester cleaved (M. restricta CBS 7877; [17]) [%] | free fatty acid detected in assays without Malassezia cells [1] | other results |
| --- | --- | --- | --- | --- | --- | --- | --- | --- | --- | --- | --- | --- | --- | --- | --- | --- | --- | --- |
| CCCCCCCC(=O)OCCCO [3-Hydroxypropyl caprylate] | 2000 (≈ 9.89 mM) | 2000 (≈ 9.89 mM) | 500 (≈ 2.47 mM) | 1000 (≈ 4.94 mM) | 1000 (≈ 4.94 mM) | 500 (≈ 2.47 mM) | 330 (≈ 1.63 mM) | 1000 (≈ 4.94 mM) | 1000 (≈ 4.94 mM) | 1000 (≈ 4.94 mM) | 2000 (≈ 9.89 mM) | 2000 (≈ 9.89 mM) | 75 | 90 | 21 | 65 | no caprylic acid was detected |  |
| C=CCCCCCCCCC(=O)OCCCO [3-Hydroxypropyl undecylenoate] | 8000 (≈ 33 mM) | 8000 (≈ 33 mM) | 2000 (≈ 8.25 mM) | 1000 (≈ 4.13 mM) | 2000 (≈ 8.25 mM) | 1000 (≈ 4.13 mM) | 2000 (≈ 8.25 mM) | 1000 (≈ 4.13 mM) | 2000 (≈ 8.25 mM) | 4000 (≈ 16.5 mM) | 1000 (≈ 4.13 mM) | 2000 (≈ 8.25 mM) | 95 | 99.5 | 56 | 96 | no undecylenic acid was detected |  |
| C=CCCCCCCCCC(=O)O [Undecylenic acid, 10-undecylenic acid] |  |  |  |  |  |  |  |  |  |  |  |  |  |  |  |  |  | MIC (M. furfur; CBS1878, 336 h, pH 5.5, read-out: Minimal inhibitory concentration (MIC)): 2000 µg/mL (≈ 10.9 mM); MIC (M. furfur; CBS7019, 336 h, pH 5.5, read-out: Minimal inhibitory concentration (MIC)): > 2000 µg/mL; MIC (M. globosa; [18]): 677 µg/mL (≈ 3.67 mM); MIC (M. globosa; CBS7705, 336 h, pH 5.5, read-out: Minimal inhibitory concentration (MIC)): 330 µg/mL (≈ 1.79 mM); MIC (M. globosa; CBS7966, 336 h, pH 5.5, read-out: Minimal inhibitory concentration (MIC)): 2000 µg/mL (≈ 10.9 mM); MIC (M. pachydermatis; [18]): 500 µg/mL (≈ 2.71 mM); MIC (M. pachydermatis; CBS1879, 336 h, pH 5.5, read-out: Minimal inhibitory concentration (MIC)): 1000 µg/mL (≈ 5.43 mM); MIC (M. restricta; pH 5.5, read-out: Minimal inhibitory concentration (MIC)): 500 µg/mL (≈ 2.71 mM); MIC (M. sympodialis; pH 5.5, read-out: Minimal inhibitory concentration (MIC), M. sympodialis ATCC 42132, pH 5.5, 32° C., up to 14 days): 100 µg/mL (≈ 0.543 mM); MIC (M. sympodialis; pH 5.5, read-out: Minimal inhibitory concentration (MIC), M. sympodialis CBS 7222, pH 5.5, 32° C., up to 14 days): 100 µg/mL (≈ 0.543 mM); MIC (M. sympodialis; pH 5.5, read-out: Minimal inhibitory concentration (MIC), M. sympodialis CBS 7979, pH 5.5, 32° C., up to 14 days): 200 µg/mL (≈ 1.09 mM); MIC (M. sympodialis; pH 5.5, read-out: Minimal inhibitory concentration (MIC), M. sympodialis DSM 6171, pH 5.5, 32° C., up to 14 days): 100 µg/mL (≈ 0.543 mM) |
| PEG9-caprylate |  |  |  |  |  |  |  |  |  |  |  |  |  |  |  |  |  | Minimal inhibitory concentration (MIC) (M. furfur; M. furfur CBS 1878, agar dilution, pH 5.5, 32° C., up to 14 days): 20000 ppm; Minimal inhibitory concentration (MIC) (M. furfur; M. furfur CBS 7019, agar dilution, pH 5.5, 32° C., up to 14 days): 10000 ppm; Minimal inhibitory concentration (MIC) (M. globosa; M. globosa CBS 7966, agar dilution, pH 5.5, 32° C., up to 14 days): 2000 ppm; Minimal inhibitory concentration (MIC) (M. globosa; M. globosa PM1, agar dilution, pH 5.5, 32° C., up to 14 days): 2000 ppm; Minimal inhibitory concentration (MIC) (M. pachydermatis; M. pachydermatis 1892, agar dilution, pH 5.5, 32° C., up to 14 days): 4000 ppm; Minimal inhibitory concentration (MIC) (M. pachydermatis; M. pachydermatis CBS 1879, agar dilution, pH 5.5, 32° C., up to 14 days): 2000 ppm; Minimal inhibitory concentration (MIC) (M. restricta; M. restricta CBS 7877, agar dilution, pH 5.5, 32° C., up to 14 days): 2000 ppm; Minimal inhibitory concentration (MIC) (M. sympodialis; M. sympodialis ATCC 42132, pH 5.5, 32° C., up to 14 days): 10000 ppm; Minimal inhibitory concentration (MIC) (M. sympodialis; M. sympodialis CBS 7222, pH 5.5, 32° C., up to 14 days): 10000 ppm; Minimal inhibitory concentration (MIC) (M. sympodialis; M. sympodialis CBS 7979, pH 5.5, 32° C., up to 14 days): 8000 ppm; Minimal inhibitory concentration (MIC) (M. sympodialis; M. sympodialis DSM 6171, pH 5.5, 32° C., up to 14 days): 8000 ppm |
| CCCCCCCC(=O)O [Caprylic acid, caprylic acid] | 1000 (≈ 6.93 mM) | 2000 (≈ 13.9 mM) | 500 (≈ 3.47 mM) |  | 1000 (≈ 6.93 mM) | 200 (≈ 1.39 mM) | 100 (≈ 0.693 mM) | 200 (≈ 1.39 mM) | 330 (≈ 2.29 mM) | 330 (≈ 2.29 mM) | 1000 (≈ 6.93 mM) | 500 (≈ 3.47 mM) |  |  |  |  |  |  |
| C=CCCCCCCCCC(=O)OCC [Ethyl undecylenoate] | 20000 (≈ 94.2 mM) | > 20000 | 8000 (≈ 37.7 mM) | 4000 (≈ 18.8 mM) | 10000 (≈ 47.1 mM) | 500 (≈ 2.35 mM) | 2000 (≈ 9.42 mM) | 1000 (≈ 4.71 mM) | 200 (≈ 0.942 mM) | 200 (≈ 0.942 mM) | 200 (≈ 0.942 mM) | 200 (≈ 0.942 mM) |  |  |  |  |  |  |
